Molecules are shown by their SMILES.

Test [1] deals with P23H mutant mouse rhodopsin fused with Renilla luciferase (Rluc). The test is described as follows: Rluc (luciferase) reporter assay in Hek293 (RHO^P23H-Rluc) cells. It is filed as cell-based. The following applies: for Efficacy, Rluc assay Hek293 (RHO^P23H − Rluc): 24 h, DMSO 0%, Evans Blue −100% controls; for EC50: 24 h compound treatment, dose-response, triplicate. The source says:
Two Hek293 stable cell lines, Hek293 (RHO^WT-Rluc) and Hek293 (RHO^P23H-Rluc) cells were generated which stably express the WT and P23H mutant mouse rhodopsin each fused with a Renilla luciferase (Rluc) for the luciferase reporter assay as previously described. Briefly, the Hek 293 cells (ATCC, Manassas, VA, USA) were transfected with the pcDNA3.1 Zeo containing the cDNA of mouse WT or P23H rhodopsin fused with a Rluc 8 (a gift from Dr. Navine Lambert at Augusta University, Augusta, GA USA) and transfected cells were incubated in Dulbecco's modified Eagle's medium (DMEM, Genesee Scientific, E1 Cajon, CA USA) with 10% fetal bovine serum (FBS, Gibco Laboratories, Gaithersburg, MD USA) for 48 h before addition of 400 μg/mL of Zeocin (InvivoGen, San Diego, CA USA) for positive clone selection. Colonies of cells survived from 1 week of Zeocin selection were collected, and expression of WT and P23H rhodopsin were confirmed by a luciferase assay and immunoblotting of rhodopsin with positive bands of monomers at about 70 kD (FIG. 8). The difference of molecular masses between WT and P23H rhodopsin proteins was due to differences in glycosylation, which was also seen in the NIH3T3 cells expressing the WT and P23H rhodopsin proteins.
The HTS was performed at three facilities, including University of Cincinnati (UC), Case Western Reserve University, and National Center for Advancing Translational Sciences (NCATS), testing a total of six compound collections. These compound collections include: 1) the UC 10K Diversity Set (10,011 compounds), 2) the Life Chemicals 50K Collection (50,560), 3) the Spectrum Collection (2,400 compounds), 4) the LOPAC collection (1,280 compounds), 5) the FDA collection (2,816 compounds), and 6) the NCATS MIPE collection (1,912 compounds). […] For the compound collections 1), 2) and 3), we firstly tested each compound using the P23H rhodopsin luciferase reporter assay at a single dose for once (9.93 to 16.13 μM) in 384-well format, and we identified 2072 compounds with activity scores lower than the cutoff at mean-2SD. Activity scores were normalized using DMSO treated cells as 0% control and the 1 mM Evans Blue treated cells as −100% control. From these hit compounds, we excluded those reported with luciferase inhibitor activities and cherry-picked the rest for hit confirmation. Each hit was tested at 10 μM in the Hek293 (RHO^P23H-Rluc) cells again by the luciferase reporter assay in triplicates, and the confirmed hits with activity scores lower than-50% were then counter screened for their effects on Rluc activity by the recombinant Rluc activity assay, and on WT rhodopsin level by the luciferase reporter assay in the Hek293 (RHO^WT-Rluc) cells at 10 μM in triplicates, respectively. […] Next, we tested the dose responses of these confirmed hits in both the Hek293 (RHO^P23H-Rluc) and the Hek293 (RHO^WT-Rluc) cells and identified compounds that selectively favored the clearance of P23H than WT rhodopsin in a dose-dependent manner (Table 4). For the compound collections 4)-6), we tested each compound directly at 7 or 11 doses using the luciferase reporter assay in the Hek293 (RHO^P23H-Rluc) cells in 1536-well format, and identified 128 compounds with efficacy smaller than-50% and EC50<20 μM.
The Rluc reporter assay has been described before. HTS was undertaken in 384-well format for the UC 10K Diversity Set, Spectrum Collection and the Life Chemicals 50K diversity set, and in 1536-well format for the FDA, LOPAC, and MIPE collections. Using the 384-well format as an example, Hek (RHO^P23H-Rluc) cells were seeded in 384-well white-wall clear-bottom plates (assay plates) at 3×10^5/mL for 40 μL/well by an 8-channel Multiflo liquid dispenser (Bioteck, Winooski, VT USA). The assay plates were centrifuged at 300×g for 30 s and cultured at 37° C. with 5% CO2 overnight. […]

Test [2] relates to adRP-causing rhodopsin mutants (T4R, P23H, P53R, C110Y, D190N, P267L). The test is described as follows: High-content imaging of rhodopsin mutants stably expressed in U2OS cells. It is filed as cell-based, mouse. The following applies: for immunofluorescence intensities of rhodopsin mutants: six adRP mutants. As for the experimental part:
Seven U2OS stable cell lines were generated which separately express the WT and six mutant mouse rhodopsin (T4R, P23H, P53R, C110Y, D190N, P267L) fused with Venus fluorescence protein. Briefly, the U2OS cells (ATCC, Manassas, VA, USA) were transfected with the pcDNA3.1 Zeo containing the cDNA of mouse WT or T4R, P23H, P53R, C110Y, D190N, P267L rhodopsin fused with Venus and transfected cells were incubated in DMEM with 10% FBS for 48 h before addition of 400 μg/mL of Zeocin for positive clone selection. Colonies of cells survived from 1 week of Zeocin selection were collected, and expression of WT and six mutant rhodopsins were confirmed by fluorescence of Venus and immunoblotting of rhodopsin.
To assess the effect of active compounds on the clearance of P23H rhodopsin in mammalian cells, an image-based assay was performed using NIH3T3 (RHO^WT/GFP) and NIH3T3 (RHO^P23H/GFP) cells, as described previously. Briefly, cells were seeded at 5000 cells per well in 384-well plates and incubated at 37° C. in 5% CO2 for 4 hours until cells were attached to the bottom of the plate. Attached cells were treated with compounds for 24 hours. The assay medium was aspirated, and cells were fixed with 4% paraformaldehyde at 20 μL per well for 20 min at room temperature. Cell membranes were permeabilized with PBS containing 0.1% Triton X-100 (PBST) and then incubated with 50 µg/mL 1D4 anti-rhodopsin antibody at 15 μL/well for 1 hour at room temperature. After three washes with 50 μl/well of PBST, cells were incubated with 15 μL/well Cy3-conjugated goat anti-mouse IgG antibody for 1 hour at room temperature. After three washes with 50 μl/well of PBST, cells were incubated in 50 μl/well of PBS containing 2 μg/mL Hoechst 33342 to stain the nuclei. Finally, the immunostained cells were imaged by an ImageExpress High Content Imaging System (MolecularDevices). Immunofluorescence of rhodopsin was measured by MetaXpress software using the mean of total fluorescence of Cy3 channel per cell per well taken from five fields containing 600-1000 intact cells per well. After normalizing the fluorescence intensities of rhodopsin to the DMSO treated cells as 0% and cells immunostained with secondary antibody only as −100%, dose-response curves for each compound were plotted and fitted by a modified Hill function using the Origin software. The high-content imaging experiments for hit validation were performed at the CWRU drug discovery facility, and the high-content imaging analyses for the MTX co-treatment with BafA1 and MG-132 were undertaken at the University of Pittsburgh Drug Discovery Institute.

As to `CC(O)CN` (centres unmarked) [CL-004], in test [1], the “Efficacy, Rluc assay Hek293 (RHO^P23H − Rluc)” value (shortened to “Efficacy, Rluc assay Hek293”) is −68.6% and the 50% effective concentration (EC50) came to 1600 nM.
As to `CC(=O)OC(CC(=O)[O-])C[N+](C)(C)C` (centres unmarked) [CL-001], in test [1], the “Efficacy, Rluc assay Hek293” value was −69.4% and the EC50 is 1100 nM. For the same compound, the “immunofluorescence intensities of rhodopsin mutants” value (“immunofluorescence intensities” for short) in test [2] was “reduced”.
With `O=C(O)C1=CC=CC(O)C1O` (centres unmarked) [CL-003], in test [1], the “Efficacy, Rluc assay Hek293” value is −65.3% and the EC50 was determined as 890 nM.
Regarding `CCn1cnc2c(N)ncnc21` [CL-007], in test [1], the “Efficacy, Rluc assay Hek293” value is listed as −72.5% and it took 13000 nM to reach a half-maximal effect (EC50). Besides, the “immunofluorescence intensities” value in test [2] is reported as “reduced”.
Consider `CN(Cc1cnc2nc(N)nc(N)c2n1)c1ccc(C(=O)N[C@@H](CCC(=O)O)C(=O)O)cc1` [CL-009, N-[4-[[(2,4-diamino-6-pteridinyl)methyl]methylamino]benzoyl]-L-glutamic acid], for which, in test [1], the “Efficacy, Rluc assay Hek293” value is given as −53.0% and a half-maximal effect (EC50) was put at 430 nM. For the same compound, the “rhodopsin immunofluorescence in cells expressing the P23H, C110Y, D190N and P267L mutants” value in test [2] (seven doses) is given as “dose-dependent reductions”.
`NCC(=O)COP(=O)(O)O` [CL-005]: in test [1], the “Efficacy, Rluc assay Hek293” value is recorded as −78.2% and the EC50 was 6600 nM. For the same compound, in test [2], the “immunofluorescence intensities” value is “reduced”.
Taken in the same sequence, the figures for `CC(=O)OC(CC(=O)O)C[N+](C)(C)C` (centres unmarked) [CL-002] were −86.1%, 2000 nM and “reduced”.
`CCC(C)(O)C(O)C(=O)O` (centres unmarked) [CL-008]: in test [1], the “Efficacy, Rluc assay Hek293” value is recorded as −89.5% and the EC50 was found to be 930 nM.
Taken in the same sequence, the figures for `O=C(NC1CCNCC1)c1n[nH]cc1NC(=O)c1c(Cl)cccc1Cl` [CL-006] were −66.2% and 1700 nM.

The values above are taken from patent US12678440B2, “Compositions and methods for treating misfolded protein ocular disorders” (CASE WESTERN RESERVE UNIVERSITY, priority 2020, dated 2026).
